Measurements: PubChem BioAssay AID812 (SRMLSC, 2007)
The source made the active and inactive calls. No rule for the calls is given here.

What follows are compounds tested on Saccharomyces cerevisiae lifespan extension, no nicotinamide (assay: yeast lifespan extension without nicotinamide, confirmation, yeast lifespan extension project, S. cerevisiae (AID 812);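 also: growth read as optical density after 42 hours of incubation at 30C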).

| SMILES | EC50 |
| --- | --- |
| CN1CCC2(CC1)C(C#N)=C(N)NC(S)=C2C#N | > 40 µM (inactive) |
| COc1cc(OC)cc(-c2nc3ccccc3c(=O)n2OC(=O)c2ccc(Br)cc2)c1 | > 40 µM (inactive) |
| O=C(c1ccccc1)c1nc2ccccc2[nH]c1=O | > 40 µM (inactive) |
| COc1ccccc1N(CN1CCCC1=O)C(=O)c1c(F)cccc1F | > 40 µM (inactive) |
| O=C(N/N=C/c1ccccc1)c1c(O)c2ccccc2[nH]c1=O | > 40 µM (inactive) |
| CC(C)Cn1c(=O)c(C(=O)Nc2cnccn2)c(O)c2ccccc21 | > 40 µM (inactive) |
| CCn1cc(C(=O)O)c(=O)c2ccc(C)nc21 | > 40 µM (inactive) |
| CCOc1ccc(/C=C2/C(=O)NC(=O)N(CCc3ccc(F)cc3)C2=O)cc1 | > 40 µM (inactive) |
| Cc1ccc(C(=O)OC2=CC(=O)CC(C)(C)C2)cc1 | > 40 µM (inactive) |
| O=C1c2ccccc2C(=O)N1OCc1ccccc1 | > 40 µM (inactive) |
| CCOC(=O)CCS(=O)(=O)c1nc(-c2ccccc2)cc(C(F)(F)F)n1 | > 40 µM (inactive) |
| COc1ccc2c(=O)c3c(=O)n(Cc4ccco4)c(-c4ccc(C)cc4)nc3oc2c1 | > 40 µM (inactive) |
| CC(C)c1nnc(NC(=O)c2c(O)c3cccc4c3n(c2=O)CCC4)s1 | > 40 µM (inactive) |
| O=C(NC(=S)NNC(=O)c1ccc(Cl)cc1Cl)c1cccnc1 | > 40 µM (inactive) |
| COc1cccc(/C=C/C(=O)c2c(O)cc(C)oc2=O)c1O | > 40 µM (inactive) |
| c1ccc(-c2c(-c3ccccc3)n(Cc3ccco3)c3ncnc(NCCCn4ccnc4)c23)cc1 | > 40 µM (inactive) |
| C[C@]12CC[C@@H](O)C[C@@H]1CC[C@@H]1[C@@H]2CC[C@]2(C)[C@@H](O)CC[C@@H]12 | > 40 µM (inactive) |
| O=c1cc(-c2c(F)c(F)c(F)c(F)c2F)oc2c(F)c(F)c(F)c(F)c12 | > 40 µM (inactive) |
| CCc1nnc(NC(=O)c2cccc(S(=O)(=O)N(C)c3ccccc3)c2)s1 | > 40 µM (inactive) |
| COc1ccc(NC(=O)/C(Cl)=C(/Cl)S(=O)Cc2ccc(C)cc2)cn1 (stereo not drawn) | > 40 µM (inactive) |
| CCOC(=O)C1Cc2cc3c(cc2C1=O)CC(C(=O)OCC)C3=O (stereo not drawn) | > 40 µM (inactive) |
| Cc1ccc(NC(=O)CN2CCN(CCN=CC3=C(O)CC(c4ccccc4)CC3=O)CC2)cc1 (stereo not drawn) | > 40 µM (inactive) |
| CCCCC1C(=O)CC[C@H]2[C@@H]1CC(=O)[C@@H]2C/C=C\CCCC(=O)O (stereo partly drawn) | > 40 µM (inactive) |
| COc1ccc(-c2cc(C(F)(F)F)nc(S(C)(=O)=O)n2)cc1OC | > 40 µM (inactive) |
| CN(C)/C=C(/C(=O)c1ccc(Cl)cc1Cl)S(=O)(=O)c1ccccc1 | > 40 µM (inactive) |

| SMILES | EC50 |
| --- | --- |
| O=S(=O)(ON(c1ccccc1)S(=O)(=O)c1ccccc1)c1ccccc1 | > 40 µM (inactive) |
| O=c1cc(-c2ccccc2Cl)oc2ccc([N+](=O)[O-])c(O)c12 | > 40 µM (inactive) |
| CCOC(=O)c1ccccc1N1C(=O)CSC1=S | > 40 µM (inactive) |
| Cc1ccc(N(C(=O)CS(=O)CC(=O)Nc2ccc(F)cc2)C(C(=O)NC2CCCCC2)c2ccco2)cc1 (stereo not drawn) | > 40 µM (inactive) |
| O=C1/C(=N/n2cnnc2)c2ccccc2N1Cc1ccccc1 | > 40 µM (inactive) |
| COc1ccc(C(CNC(=O)c2cccc(Br)c2)N2CCCC2)cc1 (stereo not drawn) | > 40 µM (inactive) |
| O=C1/C(=C\c2cccnc2)CN(Cc2ccccc2)C/C1=C\c1cccnc1 | > 40 µM (inactive) |
| CCOC(=O)/C(=C/c1ccc(OC(=O)c2ccccc2)cc1)C(C)=O | > 40 µM (inactive) |
| COC(=O)c1cc(OC)c(OC)cc1NC(=S)Nc1cccc(C(C)=O)c1 | > 40 µM (inactive) |
| CCCCn1c(=O)c(C(=O)Nc2cnccn2)c(O)c2ccccc21 | > 40 µM (inactive) |
| Cc1cc(C2C(C#N)=C(N)Oc3n[nH]c(C)c32)c(C)s1 (stereo not drawn) | > 40 µM (inactive) |
| CN1OC(c2ccccc2)=C(CO)C1c1ccccc1 (stereo not drawn) | > 40 µM (inactive) |
| CCSc1nnc(NC(=O)C2(C)Cc3ccccc3C(=O)O2)s1 (stereo not drawn) | > 40 µM (inactive) |
| Cc1cc(C(=O)CN2C(=O)NC(C)(CC(C)C)C2=O)c(C)n1-c1ccc2c(c1)OCO2 (stereo not drawn) | > 40 µM (inactive) |
| Cc1ccc(NC(=O)C2C(=O)N(C)c3ccccc32)cc1 (stereo not drawn) | > 40 µM (inactive) |
| CCOC(=O)CCCNC(=O)COc1ccccc1C#N | > 40 µM (inactive) |
| O=C1NC(=O)N(CCC2=CCCCC2)C(=O)/C1=C\c1cccs1 | > 40 µM (inactive) |
| Cc1ccc(C(C2=C(O)CC(C)(C)CC2=O)C2C(=O)CC(C)(C)CC2=O)o1 (stereo not drawn) | > 40 µM (inactive) |
| O=C(O)c1c[nH]c(=S)n1-c1ccc(F)cc1 | > 40 µM (inactive) |
| CN1C(=O)NC(c2ccc(O)cc2)C(C(=O)c2cccs2)C1(O)C(F)(F)F (stereo not drawn) | > 40 µM (inactive) |
| CC(C)c1ccc(C2=C(O)c3ccccc3C(=O)C2=O)cc1 | > 40 µM (inactive) |
| CCCNC(=O)CCC(NS(=O)(=O)c1ccc(C)cc1)C(=O)NCCC (stereo not drawn) | > 40 µM (inactive) |
| Cc1ccc(C(=O)C2C(=O)c3ccccc3C2=O)cc1 | > 40 µM (inactive) |
| Cc1ccc2nc(N3C(=O)C(O)=C(C(=O)c4ccco4)C3c3cccs3)sc2c1 (stereo not drawn) | > 40 µM (inactive) |
| O=[N+]([O-])c1c(C(Cl)Cl)nn(-c2ccccc2)c1N1CCCC1 | > 40 µM (inactive) |

| SMILES | EC50 |
| --- | --- |
| O=C(N/N=C/c1ccc(F)cc1)c1c(O)c2ccccc2[nH]c1=O | > 40 µM (inactive) |
| C=CCn1c(-c2ccc(OC)cc2)csc1=Nc1c(C)n(C)n(-c2ccccc2)c1=O | > 40 µM (inactive) |
| COc1ccc(CNC(=O)c2c(O)c3cccc4c3n(c2=O)CCC4)cc1 | > 40 µM (inactive) |
| COc1cccc(C(=O)Oc2cc(N)n(S(=O)(=O)c3ccc(C)cc3)n2)c1OC | > 40 µM (inactive) |
| CN1C(=O)C(Cl)(Cl)C(=O)c2ccccc21 | > 40 µM (inactive) |
| CN1CCN(C(=S)Nc2cc([N+](=O)[O-])ccc2Cl)CC1 | > 40 µM (inactive) |
| O=C(CS(=O)c1ccc(C(F)(F)F)cc1[N+](=O)[O-])Oc1ccccc1 (stereo not drawn) | > 40 µM (inactive) |
| CCCN1C(=O)/C(=C/c2ccncc2)SC1=S | > 40 µM (inactive) |
| COc1ccccc1CNC(=O)C(CCSC)NS(=O)(=O)c1ccc2c(c1)oc(=O)n2C (stereo not drawn) | > 40 µM (inactive) |
| CCOC(=O)c1c(NC(=O)C2C3C=CC(C3)C2C(=O)O)sc2c1CCC(CC)C2 (stereo not drawn) | > 40 µM (inactive) |
| CCCCC(c1nnnn1CC1CCCO1)N1CCN(c2nc3ccccc3s2)CC1 (stereo not drawn) | > 40 µM (inactive) |
| C=CCN(CC=C)S(=O)(=O)c1ccc2nc(NC(=O)C(C)C)sc2c1 | > 40 µM (inactive) |
| ClC(Cl)(c1nnnn1-c1ccccc1)c1nnnn1-c1ccccc1 | > 40 µM (inactive) |
| O=[N+]([O-])c1cc(S(=O)(=O)N2CCCCCC2)ccc1F | > 40 µM (inactive) |
| C=CS(=O)(=O)c1ccc(Oc2ccc(S(=O)(=O)C=C)cc2)cc1 | > 40 µM (inactive) |
| CC(c1ccccc1)N1CCn2c(nc3cc(NC(=O)c4cccs4)ccc32)C1 (stereo not drawn) | > 40 µM (inactive) |
| CC1C/C(=C\c2cccnc2)C(=O)/C(=C/c2cccnc2)C1 (stereo not drawn) | > 40 µM (inactive) |
| O=c1c(-c2ccc(Cl)cc2)[n+]([O-])c2ccccc2n1OCc1ccccn1 | > 40 µM (inactive) |
| O=C1C=CCC(/C=C/c2ccccc2)O1 (stereo not drawn) | > 40 µM (inactive) |
| CCCCN(CCCC)c1ccc(C(=O)c2ccccc2C(=O)O)c(O)c1 | > 40 µM (inactive) |
| CCCCOC(=O)CSc1nc2c(c(=O)[nH]c(=O)n2C)n1C/C=C(\C)Cl | > 40 µM (inactive) |
| Oc1ccc(NCc2ccccc2OCc2ccccc2F)cc1 | > 40 µM (inactive) |
| Cc1ccc(/C=C/C(=O)C2C(=O)c3ccccc3C2=O)cc1 | > 40 µM (inactive) |
| CCOC(=O)C1=C(N)OC2=C(C(=O)CCC2)C1c1sccc1C (stereo not drawn) | > 40 µM (inactive) |
| Cc1cc(N2C(=O)CC(Cc3ccccc3)C2=O)no1 (stereo not drawn) | > 40 µM (inactive) |

| SMILES | EC50 |
| --- | --- |
| O=C(CCN1CCCCCC1)Nc1ccc(F)cc1 | > 40 µM (inactive) |
| COc1ccc2c(=O)c3c(=O)n(Cc4ccco4)c(-c4ccco4)nc3oc2c1 | > 40 µM (inactive) |
| CC1CCCN(c2nc3ccccc3nc2C(C#N)C(=O)OC2CCCCC2)C1 (stereo not drawn) | > 40 µM (inactive) |
| CCC(=O)Nc1ccccc1Sc1ncnc2scc(-c3ccccc3)c12 | > 40 µM (inactive) |
| Cc1ccc(NC(=O)Nc2nc(-c3ccc(C)s3)cs2)cc1 | > 40 µM (inactive) |
| Cc1cc(N=Cc2c(O)ccc3ccccc23)no1 | > 40 µM (inactive) |
| CCOC(=O)c1c(C)oc2c1c(C(c1cccnc1)N1CCCCC1)c(O)c1ccccc12 (stereo not drawn) | > 40 µM (inactive) |
| CCOc1ccc(C2=NNC(c3cccs3)=Nc3ccc(OCC)cc32)cc1 | > 40 µM (inactive) |
| COc1ccc(N(C)C(=S)Nc2ccc3nc(C)c(C)nc3c2)cc1 | > 40 µM (inactive) |
| C[C@]12CC[C@@H]3c4ccc(O)cc4CC[C@H]3[C@@H]1CC[C@@H]2OC(=O)CCC(=O)O | > 40 µM (inactive) |
| CC(C)=C1C(=O)NN(c2ccc(C)c(Cl)c2)C1=O | > 40 µM (inactive) |
| Fc1cccc2sc(Nc3nnc(-c4ccccc4)o3)nc12 | > 40 µM (inactive) |
| CC(=C1C(=O)c2ccccc2C1=O)N1CCN(C/C=C/c2ccccc2)CC1 | > 40 µM (inactive) |
| CCc1[nH]nc2c1C(c1ccc(Br)s1)C(C#N)=C(N)O2 (stereo not drawn) | > 40 µM (inactive) |
| O=C(O)c1cccc2c1C(=O)N(C1CCCCC1)C2 | > 40 µM (inactive) |
| CC(=O)c1c(C)[nH]c(C(=O)OC2CCCCC2=O)c1C (stereo not drawn) | > 40 µM (inactive) |
| COc1cc(Br)cc(-c2nc3c(c(=O)[nH]c(=O)n3Cc3ccccc3)n2C)c1O | > 40 µM (inactive) |
| COc1ccc(CNC(=O)C2CCN(c3nc(OC)nc(OC)n3)CC2)cc1 | > 40 µM (inactive) |
| O=C(O)Cc1ccc(N=Cc2c(O)ccc3ccccc23)cc1 | > 40 µM (inactive) |
| CCc1ccc(C(=O)CN2C(=O)NC(C)(CCc3ccccc3)C2=O)cc1 (stereo not drawn) | > 40 µM (inactive) |
| CS(=O)(=O)c1nc(-c2ccccc2)cc(C(F)(F)F)n1 | > 40 µM (inactive) |
| O=c1[nH]c2ccccc2nc1Cc1ccccc1 | > 40 µM (inactive) |
| CCCC(=Nc1ccccc1)C1=C(O)C(C(=O)OC)C(C)(C)CC1=O (stereo not drawn) | > 40 µM (inactive) |
